According to ChEMBL document CHEMBL4354783, “The calcium-dependent lipopeptide antibiotics: structure, mechanism, & medicinal chemistry” (2019):
Converted amounts (≈) assume the structure as drawn.

Key:
Staphylococcus aureus = assay: Antibacterial activity against methicillin-resistant Staphylococcus aureus USA300 incubated for 18 hrs by two-fold serial dilutions method; format: functional; conditions: USA300, 18 h
Enterococcus faecium = assay: Antibacterial activity against vancomycin-resistant Enterococcus faecium incubated for 18 hrs by two-fold serial dilutions method; format: functional

Row | SMILES | MIC (Staphylococcus aureus) | MIC (Enterococcus faecium)
1 | CCC(C)CC/C=C\C=C\C(=O)N[C@H](C(=O)N[C@@H]1C(=O)N[C@H](C(C)C)C(=O)N[C@@H](CCCCN)C(=O)N[C@@H](C(O)C(=O)O)C(=O)N[C@@H](CC(=O)O)C(=O)NCC(=O)N[C@H](C(C)C(=O)O)C(=O)N[C@@H](C(C)C)C(=O)N2C[C@H](C)C[C@H]2C(=O)NC1C)C(C)C(=O)O (some centres undefined) | 0.2 to 0.8 µg/mL (≈ 0.158 to 0.633 µM) | 0.8 to 2 µg/mL (≈ 0.633 to 1.58 µM)
2 | CC(C)CC/C=C\C=C\C(=O)N[C@H](C(=O)N[C@@H]1C(=O)N[C@H](C(C)C)C(=O)N[C@@H](CCCCN)C(=O)N[C@@H](C(O)C(=O)O)C(=O)N[C@@H](CC(=O)O)C(=O)NCC(=O)N[C@H](C(C)C(=O)O)C(=O)N[C@@H](C(C)C)C(=O)N2C[C@H](C)C[C@H]2C(=O)NC1C)C(C)C(=O)O (some centres undefined) | 0.2 to 0.8 µg/mL (≈ 0.16 to 0.64 µM) | 0.8 to 2 µg/mL (≈ 0.64 to 1.6 µM)
